Experimental findings from paper PMC8270260, “4,7-Disubstituted 7H-Pyrrolo[2,3-d]pyrimidines and Their Analogs as Antiviral Agents against Zika Virus” (Molecules, 2021) are described below.

Data set [1] relates to ZIKV. Briefly: ZIKV titer-reduction assay (plaque assay). Format: cell-based, Zika virus. The following applies: Huh7, MOI 0.2, 72 hpi; for inhibition at 8.5 µM / EC50 / EC90 / inhibition at 1.5 µM: Zika virus; for inhibition at 8.5 µM / inhibition at 1.5 µM: Huh-7, 72 h; for EC50 / EC90: Huh-7. The procedure: (§1) Selected compounds were validated at 8.5 µM or 1.5 µM (for compounds considered toxic at higher concentrations) using titer-reduction assays. Huh7 cells (1.5 × 10^5 per well) were plated in 24-well plates. Next day, the cells were inoculated with ZIKV or DENV (MOI 0.2 or 0.05, respectively) and two hours later, the inoculum was replaced with post-infection medium containing compound of interest at 8.5 µM or 1.5 µM. Seventy-two hpi, supernatants from infected and treated cells were collected and viral titers were measured by plaque assay. To visualize plaques, confluent Vero cells in 24-well plates were inoculated with 1:10 serial dilutions of supernatants. After two hours, the inoculum was retired and replaced with 800 µL of overlay medium (MEM medium containing 1.3% methylcellulose, 2% FBS, 100 IU streptomycin/penicillin per mL and 10 mM HEPES). After 5 days (7 days for DENV), cells were washed with PBS, fixed with 2% formaldehyde, and stained using 0.5% crystal violet in 25% methanol. Infectious virus titer (pfu/mL) was determined using the following formula: number of plaques × dilution factor × (1/inoculum volume (mL)). Viral titers were normalized with DMSO-treated and infected cells (0% inhibition). The limit of detection was 200 pfu/mL (100% inhibition). […] Dose-response assays (Figure S4, Panels B and C) were performed for selected compounds using titer-reduction assays. We used a concentration range of 0.5 to 15 µM for all selected compounds except for compound 14 (range of 0.1–3 µM). Pfu/mL were normalized as mentioned for single-dose response experiment using the values for DMSO-treated and infected cells (0% inhibition) and the limit of detection value (200 pfu/mL) as 100% inhibition. Dose-response curves were built in GraphPad Prism and EC50 values were obtained from those curves.

Data set [2] is described as follows: Cell viability assay (MTS). Format: cell-based. The following applies: human, non-infected Huh7 cells; for viability at 10 µM: normalized to DMSO; for CC50 at 72 h: Huh7 cells. Here is the method:
Cell viability assays for non-infected Huh7 cells treated with the testing compounds (in-house library), control compounds (NITD008, RDV) and DMSO were performed in parallel with the antiviral screening. After 3 or 5 days of treatment, depending upon the experiment, cell viability was evaluated using the MTS-based tetrazolium reduction CellTiter 96 Aqueous Non-Radioactive cell proliferation assay (Promega). Treatment was retired from the wells and the cells incubated with MTS diluted 1:10 in MEM medium supplemented with 10% FBS. Absorbance was measured at 490 nm wavelength. Readings were normalized with DMSO-treated cells (100%) and expressed as % viability. For dose-response experiments, we used concentrations between 0.01 and 90 µM and dose-response curves and CC50 were calculated using GraphPad Prism.

In another data set the test system is DENV-2. Put plainly: DENV titer-reduction assay (plaque assay). The format is cell-based, dengue virus. The following applies: 8.5 µM (compound 14 at 1.5 µM), Huh7, MOI 0.05, 72 h. Here is the method:
as §1
Figure 2 Inhibition of DENV by selected compounds. Huh7 cells were plated in 24 well plate. Next day, cells were inoculated with DENV (MOI = 0.05). After 2 h of infection inoculum was retired and the cells were treated with inhibitors at 8.5 µM (except for compound 14, 1.5 µM) for 72 h. Next, supernatants were assayed for viral titer by plaque assay and titers were normalized vs DMSO and expressed as % inhibition. The experiment was performed two independent times and each sample was performed in triplicate. The bars depict mean plus standard error of the mean.

Data set [3] deals with ZIKV. Put plainly: ZIKV reporter assay (luciferase-expressing ZIKV PAN1 Nluc in Huh7 cells). The following applies: Zika virus, Huh-7, Huh7, MOI 0.2, 72 hpi. Format: cell-based. The procedure:
The initial screening for ZIKV was performed using the in-house developed infectious ZIKV reporter expressing Nanoluc (ZIKV PAN1 Nluc) (see details in SI). Briefly, 1.5 × 10^4 Huh7 cells per well were seeded in 96 well plates. Next day, cells were inoculated with the ZIKV reporter at a multiplicity of infection (MOI) of 0.2 in infection medium (MEM medium supplemented with 1% FBS, 100 IU streptomycin/penicillin per mL, 1 mM sodium pyruvate and 10 mM HEPES). After 2 h, the inoculum was replaced with post-infection medium (MEM medium supplemented with 5% FBS, 100 IU streptomycin/penicillin per mL, 1 mM sodium pyruvate and 10 mM HEPES) containing compound of interest (10 µM). We used the flavivirus NS5 MTase inhibitor NSC12155^13 (10 µM) and the NS5 RdRp inhibitor NITD008^12 (1 µM) as positive controls for inhibition or 0.05% DMSO as vehicle control. Seventy-two hours post-infection (hpi), the cells were lysed with 50 µL 1× luciferase lysis buffer (Promega, Madison, WI, USA), incubated 10 min at room temp and stored at −80 °C. Thirty-five µL of lysed cells were transferred to a white 96-well plate and combined with 35 µL Nano-Glo® luciferase assay substrate (Promega) diluted 1:50 in Nano-Glo® luciferase assay buffer (Promega). The reaction was incubated for 2 min and luminescence readings were acquired using a Neo 2 plate reader (BioTek, Winooski, VT, USA). Percent inhibition was calculated in GraphPad Prism (San Diego, CA, USA) normalizing the luciferase signal to infected cells treated with DMSO (0% inhibition) and uninfected cells treated with DMSO (100% inhibition). EC50 values were calculated in GraphPad Prism using data obtained from dose-response experiments. For compounds 1 and 8, a range of concentrations between 0.05 and 15 µM were used. For compounds 11, 14, 23 and NSC12155, we used concentrations from 0.005 to 90 µM and 0.002 to 45 µM for NITD008.

The target of the next data set is ZIKV NS5 MTase (Zika virus, UniProt A0A024B7W1). Put plainly: ZIKV NS5 MTase biochemical assay. The following applies: read-out: IC50 against ZIKV NS5 MTase.
Chain of ZIKV NS5 MTase (A0A024B7W1 2521-2785): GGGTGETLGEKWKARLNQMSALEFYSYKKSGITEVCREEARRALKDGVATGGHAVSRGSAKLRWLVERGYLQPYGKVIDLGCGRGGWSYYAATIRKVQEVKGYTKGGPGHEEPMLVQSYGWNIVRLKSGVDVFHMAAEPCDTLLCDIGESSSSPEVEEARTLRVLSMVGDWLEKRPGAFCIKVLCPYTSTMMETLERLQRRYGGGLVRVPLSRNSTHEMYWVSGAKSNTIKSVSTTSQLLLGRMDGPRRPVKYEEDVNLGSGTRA

Each structure is given as a SMILES string. A value given as a limit tells only on which side of the number the result lay.

In the data set with ZIKV [1], `N#Cc1cccc(Cn2ccc3c(NCc4cccc(Cl)c4)ncnc32)c1` [Compound 11, 3-((4-((3-Chlorobenzyl)amino)-7H-pyrrolo[2,3-d]pyrimidin-7-yl)methyl)benzonitrile] showed an inhibition at 8.5 µM of 99%, an EC50 of 5.05 µM and an EC90 of 6.98 µM. Also, in data set [2], the viability at 10 µM came to 60% and the CC50 at 72 h amounted to 15.3 µM. Also, the “Inhibition of DENV (% inhibition / protection)” value in the data set on DENV-2 is recorded as “among the top inhibitors”. For the same compound, in the data set on ZIKV [3], the inhibition at 10 µM is 90% and the EC50 came to 3.16 µM.
Regarding `O=[N+]([O-])c1ccc(Cn2ccc3c(NCc4ccc(Cl)cc4)ncnc32)cc1` [Compound 20, N-(4-Chlorobenzyl)-7-(4-nitrobenzyl)-7H-pyrrolo[2,3-d]pyrimidin-4-amine], the inhibition at 1.5 µM with ZIKV [1] came out at 37%. Besides, the viability at 10 µM in data set [2] stood at 49%. Moreover, testing at 10 µM in the data set with ZIKV [3] gave an inhibition of 93%.
Compound `Clc1cccc(CNc2ncnc3c2ccn3Cc2ccccc2)c1` [Compound 3, 7-Benzyl-N-(3-chlorobenzyl)-7H-pyrrolo[2,3-d]pyrimidin-4-amine] gave an inhibition at 8.5 µM with ZIKV [1] of 68%. Also, the viability at 10 µM in data set [2] was 90%. The compound further yielded an inhibition at 10 µM in the data set on ZIKV [3] of 42%.
In the data set with ZIKV [1], `N#Cc1ccc(Cn2ccc3c(NCc4cccc(Cl)c4)ncnc32)cc1` [Compound 8, 4-((4-((3-Chlorobenzyl)amino)-7H-pyrrolo[2,3-d]pyrimidin-7-yl)methyl)benzonitrile] showed an inhibition at 1.5 µM of 47%, an inhibition at 8.5 µM of 97%, an EC50 of 4.29 µM and an EC90 of 9.02 µM. In data set [2], this compound yielded a viability at 10 µM of 68% and a CC50 at 72 h of 20.6 µM. Also, in the data set with DENV-2, the “Inhibition of DENV (% inhibition / protection)” value is “among the top inhibitors”. In the data set on ZIKV [3], this compound gave an inhibition at 10 µM of 78% and a half-maximal effective concentration (EC50) of 4.1 µM.
Take `CS(=O)(=O)c1ccc(Cn2ccc3c(NCc4cccc(Cl)c4)ncnc32)cc1` [Compound 7, N-(3-Chlorobenzyl)-7-(4-(methylsulfonyl)benzyl)-7H-pyrrolo[2,3-d]pyrimidin-4-amine]: in the data set with ZIKV [1], 1.5 µM produced 69% inhibition. Besides, the viability at 10 µM in data set [2] was determined as 39%. This compound also registered an inhibition at 10 µM in the data set on ZIKV [3] of 98%.
The matching figures for `O=[N+]([O-])c1ccc(Cn2ccc3c(NCc4cccc5ccccc45)ncnc32)cc1` [Compound 24, N-(Naphthalen-1-ylmethyl)-7-(4-nitrobenzyl)-7H-pyrrolo[2,3-d]pyrimidin-4-amine]: 13%, 44% and 94%.
`N#Cc1ccc(Cn2ccc3c(NCc4cccc(Cl)c4)ncnc32)c2ccccc12` [Compound 15, 4-((4-((3-Chlorobenzyl)amino)-7H-pyrrolo[2,3-d]pyrimidin-7-yl)methyl)-1-naphthonitrile]: the inhibition at 8.5 µM with ZIKV [1] worked out at 0%. In data set [2], this compound came in with a viability at 10 µM of 84% and a CC50 at 72 h of 39.6 µM. In the data set on ZIKV [3], this compound had an inhibition at 10 µM of 69%.
For the compound `O=[N+]([O-])c1ccc(Cn2ccc3c(NCc4ccc(Cl)c(Cl)c4)ncnc32)cc1` [Compound 23, N-(3,4-Dichlorobenzyl)-7-(4-nitrobenzyl)-7H-pyrrolo[2,3-d]pyrimidin-4-amine], in the data set on ZIKV [1] (NR = not reached), the “Titer Reduction Assay EC99” value was determined as 12.0 µM. In the data set with ZIKV [1], this compound displayed an inhibition at 8.5 µM of 98%, an EC50 of 5.91 µM and an EC90 of 10.4 µM. In data set [2], this compound came in with a viability at 10 µM of 80% and a CC50 at 72 h of 26.8 µM. The “Inhibition of DENV (% inhibition / protection)” value with DENV-2 is “among the top inhibitors”. Moreover, in the data set with ZIKV [3], 10 µM produced 91% inhibition and it took 5.7 µM to reach a half-maximal effect (EC50).
Turning to `O=[N+]([O-])c1ccccc1Cn1ccc2c(NCc3cccc(Cl)c3)ncnc21` [Compound 4, N-(3-Chlorobenzyl)-7-(2-nitrobenzyl)-7H-pyrrolo[2,3-d]pyrimidin-4-amine], in the data set with ZIKV [1], the inhibition at 8.5 µM was 82%. This compound showed a viability at 10 µM in data set [2] of 93%. This compound registered an inhibition at 10 µM in the data set on ZIKV [3] of 44%.
As to `O=[N+]([O-])c1ccc(Cn2ccc3c(NCc4cccc(Cl)c4)ncnc32)cc1` [Compound 1, N-(3-Chlorobenzyl)-7-(4-nitrobenzyl)-7H-pyrrolo [2,3-d]pyrimidin-4-amine], in the data set on ZIKV [1], the inhibition at 8.5 µM was determined as 93%, the response was half-maximal at 5.21 µM (EC50) and the EC90 came out at 10.7 µM. Besides, in data set [2], the viability at 10 µM amounted to 69% and half-maximal cytotoxicity (CC50 at 72 h) was put at 20 µM. Besides, in the data set with DENV-2, the “Inhibition of DENV (% inhibition / protection)” value is on record as “among the top inhibitors”. In the data set on ZIKV [3], this compound returned an inhibition at 10 µM of 73% and an EC50 of 5.25 µM. The IC50 at ZIKV NS5 MTase is over 100 µM.
In turn, `O=[N+]([O-])c1ccc(Cn2ccc3c(NCc4cccc(Cl)c4Cl)ncnc32)cc1` [Compound 21, N-(2,3-Dichlorobenzyl)-7-(4-nitrobenzyl)-7H-pyrrolo[2,3-d]pyrimidin-4-amine] showed an inhibition at 8.5 µM in the data set with ZIKV [1] of 91%. The compound further came in with a viability at 10 µM in data set [2] of 77%. For the same compound, in the data set on ZIKV [3], the inhibition at 10 µM was found to be 67%.
As for `O=[N+]([O-])c1cccc(Cn2ccc3c(NCc4cccc(Cl)c4)ncnc32)c1` [Compound 5, N-(3-Chlorobenzyl)-7-(3-nitrobenzyl)-7H-pyrrolo[2,3-d]pyrimidin-4-amine], the inhibition at 8.5 µM in the data set on ZIKV [1] was 92%. The compound further came in with a viability at 10 µM in data set [2] of 79%. In the data set on ZIKV [3], this compound registered an inhibition at 10 µM of 77%.
In the data set on ZIKV [1], `Clc1cccc(CNc2ncnc3c2ccn3Cc2ccnc3ccccc23)c1` [Compound 14, N-(3-Chlorobenzyl)-7-(quinolin-4-ylmethyl)-7H-pyrrolo[2,3-d]pyrimidin-4-amine] showed an inhibition at 1.5 µM of 94%, an EC50 of 1.1 µM and an EC90 of 2.28 µM. In data set [2], the viability at 10 µM was 48% and the CC50 at 72 h was 5.67 µM. Besides, in the data set with ZIKV [3], the inhibition at 10 µM came to 100% and the EC50 is 0.93 µM.
